Laboratory results published in patent publication US5525742A, “Azidophenylcyanoguanidines as photoaffinity probes” (The Upjohn Company, priority 1994, dated 1996).
Values joined by “and” are separate entries in the source; they are usually repeats but may differ in a detail not shown here. Equal entries are not always repeated. One block for each compound: values may come before it.

Experiments:
[1] = target: T1, KATP channel in A10 rat aortic smooth muscle cells (Rattus norvegicus, UniProt Q63563); assay: A10 membrane potential assay (DiBAC4(3) fluorescence), KATP channel opening; format: cell-based; details: for block of the hyperpolarizing effect by glyburide: 10 μM glyburide; for block of the hyperpolarizing effect by glyburide / EC50: A10 cells; for EC50: hyperpolarization of membrane potential; for potency relative to N-cyano-N'-(1,1-dimethylpropyl)-N''-3-pyridinylguanidine: A10 membrane potential assay
T1 construct: resting membrane potential of A10 rat aortic smooth muscle cells; host or cells: A10 rat aortic smooth muscle cells
T1 sequence (Q63563 1-1545 isoform Q63563-2): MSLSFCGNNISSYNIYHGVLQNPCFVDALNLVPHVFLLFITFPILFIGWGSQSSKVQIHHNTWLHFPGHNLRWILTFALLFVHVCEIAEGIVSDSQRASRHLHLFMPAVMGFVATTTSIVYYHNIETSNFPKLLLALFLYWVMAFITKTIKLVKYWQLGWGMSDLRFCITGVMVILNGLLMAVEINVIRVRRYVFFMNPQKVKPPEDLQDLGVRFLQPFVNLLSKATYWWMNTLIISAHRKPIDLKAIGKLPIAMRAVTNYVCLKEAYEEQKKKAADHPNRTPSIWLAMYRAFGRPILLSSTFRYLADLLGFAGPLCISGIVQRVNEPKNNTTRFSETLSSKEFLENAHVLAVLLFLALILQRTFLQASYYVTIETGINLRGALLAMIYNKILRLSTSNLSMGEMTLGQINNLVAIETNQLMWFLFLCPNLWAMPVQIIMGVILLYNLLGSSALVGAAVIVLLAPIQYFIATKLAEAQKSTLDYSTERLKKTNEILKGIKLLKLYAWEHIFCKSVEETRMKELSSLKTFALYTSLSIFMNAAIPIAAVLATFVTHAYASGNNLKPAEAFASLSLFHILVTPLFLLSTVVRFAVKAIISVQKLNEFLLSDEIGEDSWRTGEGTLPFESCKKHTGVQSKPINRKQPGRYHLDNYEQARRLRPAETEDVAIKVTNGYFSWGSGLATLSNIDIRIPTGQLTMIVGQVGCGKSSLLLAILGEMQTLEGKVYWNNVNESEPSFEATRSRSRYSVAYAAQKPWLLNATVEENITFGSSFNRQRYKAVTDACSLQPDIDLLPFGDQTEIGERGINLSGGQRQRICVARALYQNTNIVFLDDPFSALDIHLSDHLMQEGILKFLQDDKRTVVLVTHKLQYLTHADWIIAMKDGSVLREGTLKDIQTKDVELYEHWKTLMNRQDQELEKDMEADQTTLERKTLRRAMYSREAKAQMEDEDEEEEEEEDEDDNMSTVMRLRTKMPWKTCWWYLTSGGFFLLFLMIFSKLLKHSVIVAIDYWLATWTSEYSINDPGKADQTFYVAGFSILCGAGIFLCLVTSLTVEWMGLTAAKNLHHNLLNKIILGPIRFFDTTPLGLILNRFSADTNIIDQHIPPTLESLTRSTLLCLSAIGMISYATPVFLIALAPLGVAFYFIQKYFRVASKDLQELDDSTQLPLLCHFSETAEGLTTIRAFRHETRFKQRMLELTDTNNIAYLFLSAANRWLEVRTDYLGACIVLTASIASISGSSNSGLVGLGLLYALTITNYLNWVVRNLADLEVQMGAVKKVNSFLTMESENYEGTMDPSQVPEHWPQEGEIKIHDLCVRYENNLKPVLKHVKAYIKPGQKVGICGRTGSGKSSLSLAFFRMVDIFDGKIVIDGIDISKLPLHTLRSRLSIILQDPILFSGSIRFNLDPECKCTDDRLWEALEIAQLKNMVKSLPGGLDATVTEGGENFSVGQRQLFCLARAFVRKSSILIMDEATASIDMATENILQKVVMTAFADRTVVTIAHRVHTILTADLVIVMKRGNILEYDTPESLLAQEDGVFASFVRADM
T1 sequence (Q63664 whole entry partner): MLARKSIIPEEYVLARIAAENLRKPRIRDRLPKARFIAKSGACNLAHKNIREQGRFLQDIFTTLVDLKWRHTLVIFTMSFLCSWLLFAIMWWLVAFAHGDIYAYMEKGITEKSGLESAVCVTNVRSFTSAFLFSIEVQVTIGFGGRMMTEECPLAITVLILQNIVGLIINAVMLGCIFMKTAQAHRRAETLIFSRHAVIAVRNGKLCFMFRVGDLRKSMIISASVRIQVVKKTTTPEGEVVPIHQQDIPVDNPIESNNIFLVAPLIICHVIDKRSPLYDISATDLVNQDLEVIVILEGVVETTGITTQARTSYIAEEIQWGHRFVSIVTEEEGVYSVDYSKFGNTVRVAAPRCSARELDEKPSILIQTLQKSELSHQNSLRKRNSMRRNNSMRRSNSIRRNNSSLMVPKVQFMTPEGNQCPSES
Description: (§1) Compounds that modulate KATP channel activity were examined by quantitating the effect of these compounds on the resting membrane potential of A10 rat aortic smooth muscle cells (American Type Culture Collection, number CRL-1476) using a fluorescent, potentialsensitive dye and an instrument to measure changes in cellular fluorescence. The dye of choice is bis(1,3-dibutylbarbituric acid)trimethine oxonol) DiBAC4 (3). Other voltage sensitive dyes could also be used. To optically measure changes in membrane potential, cells were subcultured onto coverglass chambers and grown to confluence. Immediately prior to analysis, cells were washed several times with Earle's balanced salt solution that was buffered to pH 7.4 with 20 mM Hepes (EBSS-H) and then placed in the buffer containing 5 μM DiBAC4 (3). Fluorescent imaging of membrane potential was carried out after the cells were equilibrated with 5 μM DiBAC4 (3) for at least 15 min at 37° C. and then placed in a 35° C. temperature-regulated mini-incubator that was mounted on the stage of laser based imaging cytometer (ACAS 570, Meridian Instruments). The ACAS 570 was configured to excite the cells at 488 nm using an argon ion laser. The fluorescent emission was monitored at 525 nm. To determine the effect of azidophenylcyanoguanidines on membrane potential, the ACAS 570 was configured to collect data once every 60 seconds for at least 25 minutes using the Kinetic program within the ACAS software. In all cases, 7 min. of baseline data were collected before the addition of the compound of interest. Changes in membrane potential were computed using a logistical model developed at Upjohn Laboratories. Control experiments established that solvents such as dimethylsulfoxide and ethanol had no effect at concentrations up to 0.8%.
In FIG. 1 the Y axis represents the change in membrane potential elicited by N-cyano-N'-(1,1-dimethylpropyl)-N''-3-pyridinylguanidine. A positive change represents a hyperpolarization of the membrane potential caused by an opening of a KATP channel. The X axis represents increasing concentrations of N-cyano-N'-(1,1-dimethylpropyl)-N''-3-pyridinylguanidine. […] The EC50 for N-cyano-N'-(1,1-dimethylpropyl)-N''-3-pyridinylguanidine in the A10 membrane potential assay is 30 nM. […] In FIG. 2 the Y axis represents change in membrane potential elicited by Example 1. A positive change represents a hyperpolarization of the membrane potential caused by an opening of a KATP channel. The X axis represents increasing concentrations of Example 1. Example 1 is structurally related to N-cyano-N'-(1,1-dimethylpropyl)-N''-3-pyridinylguanidine and has an EC50 of approximately 30 nM in the A10 assay. […] In FIG. 3 the Y axis represents the change in membrane potential elicited by Example 2. A positive change represents a hyperpolarization of the membrane potential caused by an opening of a KATP channel. The X axis represents increasing concentrations of Example 2. Example 2 is structurally related to N-cyano-N'-(1,1-dimethylpropyl)-N''-3-pyridinylguanidine and has an EC50 of approximately 30 nM in the A10 assay.
In FIG. 4A and 4B the Y axis represents a change in membrane potential. In these experiments, a change in the negative direction represents a hyperpolarization of the membrane potential caused by an opening of a KATP channel. In FIG. 4A and 4B the X axis represents time in minutes. Additional experiments indicate that 0.3 and 1.0 μM Example 3 also have no effect on the membrane potential of A10 cells (data not shown). […] Thus, within the azidophenylcyanoguanidine chemical series there are compounds that can be used to identify the cellular components required to open and close KATP close channels.

[2] = target: T1, KATP channel in A10 rat aortic smooth muscle cells; assay: Reversal/block of N-cyano-N'-(1,1-dimethylpropyl)-N''-3-pyridinylguanidine-dependent KATP channel opening in A10 cells (membrane potential); format: cell-based
Description: as §1
In FIG. 4A and 4B the Y axis represents a change in membrane potential. In these experiments, a change in the negative direction represents a hyperpolarization of the membrane potential caused by an opening of a KATP channel. In FIG. 4A and 4B the X axis represents time in minutes. […]

37 kilodalton protein = assay: Competition of photolabeling of the 37 kilodalton protein by nonradiolabeled compound; format: binding, rat; details: nonradiolabeled Example 3, 1 nM to 30 uM
Procedure: (§2) To biochemically identify the proteins that specifically bind the azidophenylcyanguanidines, Example 1a, Example 2a and Example 3a were prepared. A10 cells were grown to confluence in standard culture plates and then washed extensively with EBSS-H. After the final wash, the cells were placed in EBSS-H containing one of the radiolabeled forms of the azidophenylcyanguanidine to be tested. The A10 cells were equilibrated with the radiolabeled compound for 15 minutes at 37° C. The A10 cells were placed on ice and exposed for 1 minute to 600 μwatts/cm^2 of 254 nm UV light. After photolysis, the A10 cells were washed extensively with phosphate buffered saline. Membranes from the A10 cells were solubilized in cocktail of 0.2% Triton X100 detergent and protease inhibitors. The membranes were precipitated with 4 volumes of ice cold acetone for 30 minutes. The precipitate membrane proteins were collected by centrifugation at 20,000 rpm for 30 rain at 4° C. in a Beckman SW-28 rotor. After centrifugation the supernate was discarded and the pellet was dissolved 2% sodium dodecyl sulfate (SDS) as described by O'Farrell (J. Biol. Chem. 250:4007-4021, 1975). The radiolabeled proteins were resolved on an SDS polyacrylamide gel and identified by autoradiography after the gel was stained and dried.
(§3) There was also a 27 kilodalton protein that was radiolabeled by Example 3a and UV light.

27 kilodalton protein = assay: Competition of photolabeling of the 27 kilodalton protein by nonradiolabeled compound; format: binding, rat; details: nonradiolabeled Example 3, 1 nM to 30 uM
Procedure: as §2, §3

[3] = tested on: cyanoguanidine binding proteins; assay: Photolabeling of cyanoguanidine binding proteins in A10 cells (SDS gel, autoradiography); parameters: species or system rat; details: for apparent molecular weight of the most prominent radiolabeled protein / number of radiolabeled proteins / molecular weight of radiolabeled protein: A10 membrane extracts, UV light
Procedure: as §2

[4] = tested on: KATP channel in A10 cells; assay: Photoinactivation of KATP channels in A10 cells (UV pretreatment, then opener challenge); format: cell-based, rat; details: for photoinactivation of the A10 KATP channel: compound and UV light; for responsiveness to N-cyano-N'-(1,1-dimethylpropyl)-N''-3-pyridinylguanidine challenge after pretreatment and UV light: UV 254 nm, 1 min, challenge 1 μM, FIG. 5
Description: as §1
Photoinactivation of KATP channels in A10 cells was carried out on cells grown on coverglass chambers. A10 cells were grown to confluence and washed 3 times with EBSS-H. The A10 cells were then equilibrated for 15 min at 37° C. with 100 nM to 30 μM of the azidophenyl-cyanoguanidines. The A10 cells were exposed to 600 μwatts/cm^2 of 254 nm light for 1 min to photoactivate these azidophenyl-cyanoguanidines. After photolysis, the A10 cells were extensively washed with EBSS-H and finally placed in EBSS-H containing 5 μM DiBAC4 (3). The pretreated cells were then challenged with 1 μM N-cyano-N'-(1,1-dimethylpropyl)-N.increment.-3-pyridinylguanidine and changes in membrane potential were measured as described in Section I, above, ASSAY OF KATP CHANNEL MODULATORS. If the KATP channels in A10 cells were covalently photoinactivated by the azidophenyl-cyanoguanidines, then the cells would be unresponsive to the subsequent challenge of KATP openers such as N-cyano-N'-(1,1-dimethylpropyl)-N''-3-pyridinylguanidine. […]

[5] = tested on: calcium-activated potassium channel; assay: Responsiveness of photoinactivated A10 cells to agents that open the calcium-activated potassium channel; format: cell-based, rat; details: maximum concentration and UV light
47 kilodalton protein = assay: Competition of photolabeling of the 47 kilodalton protein by nonradiolabeled compound; format: binding, rat
Procedure: as §2, with “dried. […]” for “dried.”

56 kilodalton protein = assay: Competition of photolabeling of the 56 kilodalton protein by nonradiolabeled compound; format: binding, rat; details: nonradiolabeled Example 2, 1 nM to 30 uM
Procedure: as §2, with “dried. […]” for “dried.”

SMILES: N#CNC(=NC1(c2cccc(F)c2)CCC1)Nc1cc(I)cc(N=[N+]=[N-])c1 [Example 3, N-(3-azido-5-iodophenyl)-N'-cyano-N"-(1-(3-fluorophenyl)cyclobutyl)guanidine]
effect on the membrane potential of A10 cells ([1]; 0.3 μM, data not shown): no effect
effect on the membrane potential of A10 cells ([1]; 1.0 μM, data not shown): no effect
effect on the membrane potential of A10 cells ([1]; 10 μM, FIG. 4A): no effect
reversal of the effect of N-cyano-N'-(1,1-dimethylpropyl)-N''-3-pyridinylguanidine ([2]; 10 μM, in continuing presence of 1 μM opener, FIG. 4B): reverses the effect
block of opener-dependent opening of KATP channels ([2]; additional experiments, concentration dependence): in a concentration dependent manner
mode of action on the KATP channel in A10 cells ([2]; conclusion from the data): blocker of the KATP channel
inhibition of radiolabeling of the 37 kilodalton protein by Example 3a (37 kilodalton protein): specifically inhibited
inhibition of radiolabeling of the 27 kilodalton protein by Example 3a (27 kilodalton protein): specifically inhibited

SMILES: [3H]C([3H])([3H])C([3H])([3H])C(C)(C)NC(=NC#N)Nc1cc(Cl)cc(N=[N+]=[N-])c1 [Example 1a, N-(3-azido-5-chlorophenyl)-N'-cyano-N''-(1,1-dimethyl-2,2,3,3,3-T5-propyl)guanidine]
apparent molecular weight of the most prominent radiolabeled protein [3]: 47 kilodaltons
number of radiolabeled proteins [3]: several radiolabeled proteins
labeling in the absence of UV light ([3]; no UV light, control experiments): no proteins were labeled

SMILES: N#CN=C(Nc1cc([125I])cc(N=[N+]=[N-])c1)NC1(c2cccc(F)c2)CCC1 [Example 3a, N-(3-azido-5-iodo-125I-phenyl)-N'-cyano-N''-[1-(3-fluorophenyl)cyclobutyl]guanidine]
apparent molecular weight of the most prominent radiolabeled protein [3]: 37 kilodaltons
molecular weight of radiolabeled protein [3]: 27 kilodalton
number of radiolabeled proteins [3]: several radiolabeled proteins

SMILES: CCC(C)(C)NC(=NC#N)Nc1cc([125I])cc(N=[N+]=[N-])c1 [Example 2a, N-(3-azido-5-iodo-^125 I-phenyl)-N'-cyano-N''-(1,1-dimethylpropyl) guanidine]
molecular weight of radiolabeled protein [3]: 47 kilodalton and 56 kilodalton

Further lines, with some results ahead:

block of the hyperpolarizing effect by glyburide ([1]; data not shown): blocked
EC50 [1]: ~0.03 µM
potency relative to N-cyano-N'-(1,1-dimethylpropyl)-N''-3-pyridinylguanidine [1]: as potent as
SMILES: CCC(C)(C)N=C(NC#N)Nc1cc(I)cc(N=[N+]=[N-])c1 [Example 2, N-(3-azido-5-iodophenyl)-N'-cyano-N''-(1,1-dimethylpropyl)guanidine]
photoinactivation of the A10 KATP channel [4]: specifically photoinactivated the A10 KATP channel
responsiveness to agents that open the calcium-activated potassium channel after pretreatment [5]: remained responsive
inhibition of radiolabeling of the 47 kilodalton protein by Example 2a (47 kilodalton protein; nonradiolabeled Example 2, 1 nM to 30 uM): specifically inhibited
inhibition of radiolabeling of the 56 kilodalton protein by Example 2a (56 kilodalton protein): specifically inhibited

block of the hyperpolarizing effect by glyburide ([1]; data not shown): blocked
EC50 [1]: ~0.03 µM
potency relative to N-cyano-N'-(1,1-dimethylpropyl)-N''-3-pyridinylguanidine [1]: as potent as
SMILES: CCC(C)(C)N=C(NC#N)Nc1cc(Cl)cc(N=[N+]=[N-])c1 [Example 1, N-(3-azido-5-chlorophenyl)-N'-cyano-N"-(1,1-dimethylpropyl)guanidine]
responsiveness to N-cyano-N'-(1,1-dimethylpropyl)-N''-3-pyridinylguanidine challenge after pretreatment and UV light [4]: concentration dependent loss
photoinactivation of the A10 KATP channel [4]: specifically photoinactivated the A10 KATP channel
responsiveness to agents that open the calcium-activated potassium channel after pretreatment [5]: remained responsive
inhibition of radiolabeling of the 47 kilodalton protein by Example 1a (47 kilodalton protein; nonradiolabeled Example 1, 30 nM to 30 uM): specifically inhibited

opening of the A10 KATP channel with hyperpolarization ([1]; 1 μM, FIG. 4B): opens the A10 KATP channel
block of the hyperpolarizing effect by glyburide ([1]; data not shown): blocked
EC50 [1]: 0.03 µM
SMILES: CCC(C)(C)NC(=Nc1cccnc1)NC#N [N-cyano-N'-(1,1-dimethylpropyl)-N''-3-pyridinylguanidine, reference compound]
responsiveness to N-cyano-N'-(1,1-dimethylpropyl)-N''-3-pyridinylguanidine challenge after pretreatment and UV light [4]: remain nearly completely responsive
